The NIST ThermoML archive (doi:10.1021/je050085p)

Key:
[1] = refractive index (Na D-line) (dimensionless); conditions: 101.33 kPa, Liquid, Standard Abbe refractometry
[2] = 101.33 kPa, Liquid
[3] = refractive index (Na D-line) (dimensionless); xn = mol fraction of the nth substance listed; conditions: 308.15 K, 101 kPa, Liquid, Standard Abbe refractometry
[4] = xn = mol fraction of the nth substance listed; conditions: 308.15 K, 101 kPa, Liquid
[5] = excess molar enthalpy (molar enthalpy of mixing); xn = mol fraction of the nth substance listed; conditions: 308.15 K, 101 kPa, Liquid, Flow calorimetry

OCCc1ccccc1 [2-phenylethanol]
Conditions | mass density, [2] [kg/m3] | refractive index, [1]
298.15 K | – | 1.5321
308.15 K | 1008.75 | 1.5269

OCCc1ccccc1 [2-phenylethanol] + COc1ccccc1
Conditions | excess molar enthalpy [kJ/mol] | mass density [kg/m3] | refractive index
[3], x2 = 0.0521 | – | – | 1.526
[3], x2 = 0.1223 | – | – | 1.5248
[3], x2 = 0.2121 | – | – | 1.5233
[3], x2 = 0.3153 | – | – | 1.5217
[3], x2 = 0.4172 | – | – | 1.52
[3], x2 = 0.5245 | – | – | 1.5182
[3], x2 = 0.617 | – | – | 1.5165
[3], x2 = 0.7479 | – | – | 1.514
[3], x2 = 0.7673 | – | – | 1.5136
[3], x2 = 0.811 | – | – | 1.5127
[3], x2 = 0.9073 | – | – | 1.5106
[3], x2 = 0.9513 | – | – | 1.5096
[4], x2 = 0.0521 | – | 1007.44 | –
[4], x2 = 0.1223 | – | 1005.63 | –
[4], x2 = 0.2121 | – | 1003.26 | –
[4], x2 = 0.3153 | – | 1000.43 | –
[4], x2 = 0.4172 | – | 997.53 | –
[4], x2 = 0.5245 | – | 994.36 | –
[4], x2 = 0.617 | – | 991.55 | –
[4], x2 = 0.7479 | – | 987.5 | –
[4], x2 = 0.7673 | – | 986.9 | –
[4], x2 = 0.811 | – | 985.5 | –
[4], x2 = 0.9073 | – | 982.55 | –
[4], x2 = 0.9513 | – | 981.2 | –
[5], x2 = 0.0437 | 0.0951 | – | –
[5], x2 = 0.0838 | 0.2 | – | –
[5], x2 = 0.1206 | 0.305 | – | –
[5], x2 = 0.1546 | 0.397 | – | –
[5], x2 = 0.2153 | 0.559 | – | –
[5], x2 = 0.2678 | 0.688 | – | –
[5], x2 = 0.3543 | 0.868 | – | –
[5], x2 = 0.4224 | 0.952 | – | –
[5], x2 = 0.5232 | 1.05 | – | –
[5], x2 = 0.6221 | 1.12 | – | –
[5], x2 = 0.687 | 1.14 | – | –
[5], x2 = 0.767 | 1.12 | – | –
[5], x2 = 0.8145 | 1.05 | – | –
[5], x2 = 0.8682 | 0.908 | – | –
[5], x2 = 0.9006 | 0.776 | – | –
[5], x2 = 0.9294 | 0.613 | – | –
[5], x2 = 0.9634 | 0.361 | – | –

OCCCc1ccccc1 [3-phenyl-1-propanol]
Conditions | mass density, [2] [kg/m3] | refractive index, [1]
298.15 K | – | 1.5259
308.15 K | 991.01 | 1.5214

OCCCc1ccccc1 [3-phenyl-1-propanol] + CCOc1ccccc1
Conditions | excess molar enthalpy [kJ/mol] | mass density [kg/m3] | refractive index
[3], x2 = 0.0636 | – | – | 1.5203
[3], x2 = 0.1067 | – | – | 1.5194
[3], x2 = 0.2164 | – | – | 1.5173
[3], x2 = 0.31 | – | – | 1.5153
[3], x2 = 0.417 | – | – | 1.513
[3], x2 = 0.515 | – | – | 1.5109
[3], x2 = 0.6168 | – | – | 1.5086
[3], x2 = 0.7074 | – | – | 1.5066
[3], x2 = 0.7975 | – | – | 1.5045
[3], x2 = 0.8977 | – | – | 1.5023
[3], x2 = 0.9488 | – | – | 1.5012
[3], x2 = 0.9596 | – | – | 1.501
[4], x2 = 0.0636 | – | 988.77 | –
[4], x2 = 0.1067 | – | 987.22 | –
[4], x2 = 0.2164 | – | 983.2 | –
[4], x2 = 0.31 | – | 979.65 | –
[4], x2 = 0.417 | – | 975.46 | –
[4], x2 = 0.515 | – | 971.51 | –
[4], x2 = 0.6168 | – | 967.29 | –
[4], x2 = 0.7074 | – | 963.43 | –
[4], x2 = 0.7975 | – | 959.53 | –
[4], x2 = 0.8977 | – | 955.2 | –
[4], x2 = 0.9488 | – | 952.99 | –
[4], x2 = 0.9596 | – | 952.53 | –
[5], x2 = 0.0427 | 0.138 | – | –
[5], x2 = 0.0818 | 0.264 | – | –
[5], x2 = 0.118 | 0.368 | – | –
[5], x2 = 0.1513 | 0.476 | – | –
[5], x2 = 0.211 | 0.611 | – | –
[5], x2 = 0.2629 | 0.7 | – | –
[5], x2 = 0.3485 | 0.806 | – | –
[5], x2 = 0.4162 | 0.886 | – | –
[5], x2 = 0.5169 | 0.989 | – | –
[5], x2 = 0.6162 | 1.07 | – | –
[5], x2 = 0.6815 | 1.12 | – | –
[5], x2 = 0.7625 | 1.12 | – | –
[5], x2 = 0.8106 | 1.07 | – | –
[5], x2 = 0.8596 | 0.942 | – | –
[5], x2 = 0.8954 | 0.813 | – | –
[5], x2 = 0.9277 | 0.635 | – | –
[5], x2 = 0.9625 | 0.375 | – | –

OCCCc1ccccc1 [3-phenyl-1-propanol] + COc1ccccc1
Conditions | excess molar enthalpy [kJ/mol] | mass density [kg/m3] | refractive index
[3], x2 = 0.0579 | – | – | 1.5208
[3], x2 = 0.1201 | – | – | 1.5201
[3], x2 = 0.2636 | – | – | 1.5186
[3], x2 = 0.384 | – | – | 1.5173
[3], x2 = 0.4475 | – | – | 1.5166
[3], x2 = 0.5551 | – | – | 1.5154
[3], x2 = 0.6495 | – | – | 1.5142
[3], x2 = 0.7477 | – | – | 1.5129
[3], x2 = 0.8274 | – | – | 1.5118
[3], x2 = 0.8652 | – | – | 1.5113
[3], x2 = 0.913 | – | – | 1.5108
[3], x2 = 0.9588 | – | – | 1.5101
[4], x2 = 0.0579 | – | 990.46 | –
[4], x2 = 0.1201 | – | 989.91 | –
[4], x2 = 0.2636 | – | 988.55 | –
[4], x2 = 0.384 | – | 987.28 | –
[4], x2 = 0.4475 | – | 986.57 | –
[4], x2 = 0.5551 | – | 985.27 | –
[4], x2 = 0.6495 | – | 984.07 | –
[4], x2 = 0.7477 | – | 982.78 | –
[4], x2 = 0.8274 | – | 981.73 | –
[4], x2 = 0.8652 | – | 981.26 | –
[4], x2 = 0.913 | – | 980.67 | –
[4], x2 = 0.9588 | – | 980.14 | –
[5], x2 = 0.0493 | 0.127 | – | –
[5], x2 = 0.094 | 0.247 | – | –
[5], x2 = 0.1347 | 0.361 | – | –
[5], x2 = 0.1719 | 0.447 | – | –
[5], x2 = 0.2374 | 0.608 | – | –
[5], x2 = 0.2934 | 0.717 | – | –
[5], x2 = 0.3838 | 0.856 | – | –
[5], x2 = 0.4536 | 0.937 | – | –
[5], x2 = 0.5547 | 1.03 | – | –
[5], x2 = 0.6514 | 1.09 | – | –
[5], x2 = 0.7136 | 1.11 | – | –
[5], x2 = 0.7889 | 1.08 | – | –
[5], x2 = 0.8328 | 1 | – | –
[5], x2 = 0.877 | 0.868 | – | –
[5], x2 = 0.9088 | 0.734 | – | –
[5], x2 = 0.9373 | 0.555 | – | –
[5], x2 = 0.9676 | 0.325 | – | –

COc1ccccc1 [anisole]
Conditions | mass density, [2] [kg/m3] | refractive index, [1]
298.15 K | 989.3 | 1.5153
308.15 K | 979.71 | 1.5095
